Results on three compounds are retold here after EP0358957A1, “Fused tetrahydropyridineacetic acid derivatives, process for their preparation, and use of such compounds for the cardioprotection” (BOEHRINGER INGELHEIM KG, priority 1988, dated 1990).

Structures are written as SMILES.

The experiment concerns isolierten Rattenherzen. In words: Isolated rat heart, method II: coronary flow throttled by 75 %, prevention of the fall in contraction amplitude. The settings on record: Method II: coronary flow reduced by 75 %; substance added to perfusion medium during flow reduction; concentration needed to prevent the fall in contraction amplitude; read-out: Benötige Konzentrationen. Further details: species or system Ratten. From the text:
Wird ein, längere Zeit unter ischämischen Bedingungen gehaltenes, isoliertes Herz wieder normal perfundiert, so tritt keine sofortige Normalisierung der Herzfunktion ein. Es findet sich vielmehr eine vorübergehende Periode, die durch Kontraktur und Arrhytmien gekennzeichnet ist. Diese Arrhythmiephase ist durch Veränderungen von Funktion und Struktur der Myocardzelle mit intrazellulärer Calciumüberladung bedingt (Hess u. Manson, J. Mol. Cell. Cardiol. 16, 969, 1984). Cardioprotektiv wirksame Verbindungen wie Verapamil und Diltiazem verringern die Calciumüberladung und verbessern das Kontraktionsverhalten bei Reperfusion (Watts et al, Am. J. Physiol. 238, H 909, 1980; Meno et al, Am. J. Physiol. 247, H 380, 1984), Die cardioprotektive Wirkung wird an isolierten Rattenherzen unter Ischämie und anschließender Reperfusion untersucht.
Wird der Coronarfluß isolierter Herzen um 75 % gedrosselt, so reagiert das Herz zunächst mit einer Abnahme der Kontraktionsamplitude, ein Herzstillstand tritt erst innerhalb einer Stunde ein. Cardioprotektive Substanzen, während der Periode der Flußreduzierung dem Perfusionsmedium zugesetzt, verhindern den Abfall der Kontraktionsamplitude.
Take `CCCCNC(=O)C(CCc1ccccc1)C1NCCc2cc(OC)c(OC)cc21` (stereo not drawn) [E]: the minimal effective concentration was 1 µg/mL.

Consider `C=CCN(C1=NCCN1)c1c(Cl)cccc1Cl` [Alinidin, reference compound], for which the minimal effective concentration was found to be 8.3 µg/mL.

Regarding `COc1cc2c(cc1OC)C(C(CCc1ccccc1)C(=O)NCCc1ccncc1)NCC2` (stereo not drawn) [D], the minimal effective concentration worked out at 3 µg/mL.
